Literature values, collected in patent US20030162781A1, “Vehicle for applying chemical compounds on wood” (priority 2001, published 2003).

Details: water as carrier

SMILES: O [Water]
- wood penetration: scarcely penetrates the wood
